This passage reports IC50 results from PubChem BioAssay AID792 (PCMD, 2007).

Results filed as inconclusive are left out. Calls of active or inactive are those of the source. No rule for the calls is given here.

The target of the assay is S. cerevisiae eIF2B mutant, luciferase reporter luminescence. Description: eIF2B reporter inhibitors in yeast strains, dose response, S. cerevisiae, mutant, wild-type, luminescence, growth (AID 792).
Setting [1] is: measured here: mutant yeast growth.
Where [2] appears, read: S. cerevisiae wild-type, luminescence.

The IC50 is the midpoint of a concentration-inhibition curve. For `COc1cccc(C(=O)Nc2cccc(C(=O)N3CCOCC3)c2)c1`, the IC50 was > 100 µM (inactive). In addition, the half-maximal inhibitory concentration (IC50) under setting [1] is > 100 µM.
For `CCC(=O)NCCSc1c[nH]c2ccccc12` the same measures were > 100 µM (inactive) and > 100 µM.
Turning to `Cc1cc(C(=O)Nc2sc3c(c2C#N)CCC(C)C3)no1` (centres undefined), the IC50 was > 100 µM (inactive). Further, the IC50 under setting [1] is > 100 µM.
With `COc1cc2cc(C(c3nnnn3C3CCCCC3)N(C)C3CCCCC3)c(=O)[nH]c2cc1OC` (centres undefined), the IC50 was > 100 µM (inactive). Further, under setting [1], the half-inhibitory concentration (IC50) is > 100 µM.
For the compound `Cn1c(=O)n(CC(=O)N2CCC3(CC2)OCCO3)c(=O)c2ccccc21`, the IC50 is > 100 µM (inactive). In addition, the IC50 under setting [1] is > 100 µM.
For the compound `CC1(C)CC(=O)c2cc(OCC(=O)NCCCN3CCN(c4ccccc4F)CC3)ccc2O1`, the IC50 is > 100 µM (inactive). For the same compound, under setting [1], the concentration for half-maximal inhibition (IC50) is > 100 µM.
The matching figures for `CSC1=NCCN1C(=O)c1cccc(C(F)(F)F)c1`: > 100 µM (inactive) and > 100 µM.
With `O=C(CCc1ccccc1)Nc1ccc(Cl)cn1`, the IC50 is > 100 µM (inactive). The IC50 under setting [1] was > 100 µM.
In the case of `Cc1ccc(C(=O)Nc2ncc(C)s2)o1`, the IC50 entry is “inactive”. Under setting [2], this compound had a half-maximal inhibitory concentration (IC50) of 17.6 µM. The IC50 under setting [1] is > 100 µM.
Take `Cn1c(SCc2ccc(F)cc2)nnc1-c1cccs1`: the IC50 is > 100 µM (inactive). Also, the IC50 under setting [1] was > 100 µM.
Take `COc1cc(S(=O)(=O)N(Cc2cccnc2)Cc2ccco2)ccc1-n1cnnn1`: the IC50 was > 100 µM (inactive). For the same compound, the IC50 under setting [2] is > 100 µM. Under setting [1], the IC50 was > 100 µM.
With `CCOc1ccccc1N1CC(C(=O)N2CCc3ccccc32)CC1=O` (centres undefined), the IC50 was > 100 µM (inactive). Further, under setting [1], the concentration for half-maximal inhibition (IC50) is > 100 µM.
With `Cc1cnc(NC(=O)CN(C)S(=O)(=O)c2ccc(Cl)cc2)s1`, the IC50 was > 100 µM (inactive). Besides, the IC50 under setting [1] was > 100 µM.
`O=C(C1CCN(S(=O)(=O)N2CCOCC2)CC1)N1CCOCC1`: the IC50 was > 100 µM (inactive). The IC50 under setting [2] is > 100 µM. Further, the IC50 under setting [1] was > 100 µM.
For `N#Cc1c(/N=C/c2cc(Br)cs2)sc2c1CCC2`, the IC50 is > 100 µM (inactive). Moreover, under setting [1], the IC50 is > 100 µM.
For the compound `O=C(Nc1cccc(-c2cn3cccnc3n2)c1)c1ccc2c(c1)OCO2`, the IC50 is > 100 µM (inactive). Further, under setting [1], the IC50 was > 100 µM.
As to `O=C(O)c1ccc(CSc2n[nH]c(-c3ccco3)n2)cc1`, the IC50 is > 100 µM (inactive). Moreover, the IC50 under setting [1] is > 100 µM.
For `Cc1cc(=O)[nH]c(SCc2cc(Cl)ccc2OC(F)F)n1` the same measures were > 100 µM (inactive) and > 100 µM.
In the case of `Cn1c(=O)[nH]c(=O)c2c1nc(Br)n2CCCCSc1nc2ccccc2o1`, the IC50 was > 100 µM (inactive). Moreover, the 50% inhibitory concentration (IC50) under setting [1] was > 100 µM.
Regarding `Cn1ncc(C#N)c1/N=C/N1CCOCC1`, the IC50 is > 100 µM (inactive). Further, under setting [1], the half-maximal inhibitory concentration (IC50) was > 100 µM.
As for `Cc1ccccc1C(=O)Nc1ccccn1`, the IC50 is > 100 µM (inactive). Under setting [1], the 50% inhibitory concentration (IC50) was > 100 µM.
As to `CC1Cc2ccccc2N1C(=O)Cn1c(=O)cc(O)c2ccccc21` (centres undefined), the IC50 was > 100 µM (inactive). The IC50 under setting [1] was > 100 µM.
Consider `CCc1ccc2c(c1)C1(NN=C(c3ccc(C)cc3)S1)C(=O)N2` (centres undefined), for which the IC50 result is “inactive”. For the same compound, under setting [2], the half-maximal inhibitory concentration (IC50) was > 100 µM. In addition, the concentration for half-maximal inhibition (IC50) under setting [1] was 99 µM.
Turning to `O=C(Nc1ccccc1N1CCN(C(=O)c2ccccc2)CC1)c1cc2ccccc2o1`, the IC50 was > 100 µM (inactive). Moreover, the IC50 under setting [1] was > 100 µM.
The matching figures for `CCOC(=O)Cc1csc(NC(=O)CCc2ccc(S(=O)(=O)N3CCOCC3)cc2)n1`: > 100 µM (inactive) and > 100 µM.
Turning to `Cc1ccc2c(c1)C1CN(C)CCC1N2C(=O)Nc1cccc(Cl)c1` (centres undefined), the IC50 is > 100 µM (inactive). Besides, the half-inhibitory concentration (IC50) under setting [1] was > 100 µM.
For `CCOC(=O)CSc1ccc(-c2nc3cc(C)c(C)cc3[nH]2)cn1`, the IC50 is > 100 µM (inactive). The half-maximal inhibitory concentration (IC50) under setting [1] is > 100 µM.
Turning to `CCOC(=O)C1=C(C)NC(SCc2cc(=O)[nH][nH]2)=C(C#N)C1c1cccs1` (centres undefined), the IC50 was > 100 µM (inactive). In addition, under setting [1], the IC50 is > 100 µM.
As to `COC(=O)c1ccc(NS(=O)(=O)N(C)C)cc1`, the IC50 was > 100 µM (inactive). Besides, the half-maximal inhibitory concentration (IC50) under setting [1] was > 100 µM.
For the compound `Cc1cc2c(cc1C)CSC(c1ccc(O)cc1)SC2`, the IC50 is > 100 µM (inactive). Further, the IC50 under setting [1] was > 100 µM.
For the compound `O=C(CSc1nc(-c2ccco2)cc(C(F)(F)F)n1)Nc1ccccc1C(F)(F)F`, the IC50 is > 100 µM (inactive). For the same compound, the IC50 under setting [1] is > 100 µM.
On to `CC(C)c1[nH]c(=O)c(C#N)c2c1COC(C)(C)C2`, for which the IC50 was > 100 µM (inactive). Further, the IC50 under setting [1] was > 100 µM.
Consider `CCOC(=O)c1sc(N)c(C#N)c1CSc1nc2ccc(C)cc2[nH]1`, for which the IC50 was > 100 µM (inactive). Further, the IC50 under setting [1] is > 100 µM.
For `CCOC(=O)c1ccc(N2C(=O)C=CC2=O)cc1` the same measures were “inactive” and 6.02 µM.
With `CN(C)CCN1C(=O)C(O)=C(C(=O)c2ccco2)C1c1ccccc1F` (centres undefined), the IC50 is > 100 µM (inactive). Besides, under setting [1], the IC50 was > 100 µM.
As to `c1ccc2c(c1)CNc1ccccc1O2`, the IC50 was > 100 µM (inactive). Further, the IC50 under setting [1] was > 100 µM.
With `CCCOc1ccc(N2C(=O)CC(SC(=NCC)Nc3cccc(F)c3)C2=O)cc1` (centres undefined), the IC50 is > 100 µM (inactive). Under setting [1], the IC50 is > 100 µM.
For `Cc1ccc(C)c(N=C2CCCN2Cc2ccccc2)c1C#N` the same measures were > 100 µM (inactive) and > 100 µM.
In the case of `CCC(C)c1ccc(OCC(=O)O)cc1` (centres undefined), the IC50 is > 100 µM (inactive). The IC50 under setting [1] was > 100 µM.
With `O=C(CCSc1nnc(-c2ccco2)o1)Nc1ccc(Cl)cc1`, the IC50 is > 100 µM (inactive). Under setting [1], the half-maximal inhibitory concentration (IC50) is > 100 µM.
Take `COc1ccc(C(=O)/C=C/Nc2ccccn2)cc1`: the IC50 entry was “inactive”. Also, the IC50 under setting [2] was determined as 18.3 µM. For the same compound, under setting [1], the IC50 was > 100 µM.
Regarding `Cc1cc(C(=O)Nc2ccccc2)oc1C`, the IC50 entry is “inactive”. For the same compound, the half-inhibitory concentration (IC50) under setting [2] is 84.2 µM. For the same compound, the 50% inhibitory concentration (IC50) under setting [1] was > 100 µM.
`COc1ccc(N/C=C(\C#N)c2nc3ccccc3n2C)c(OC)c1`: the IC50 is > 100 µM (inactive). For the same compound, under setting [1], the 50% inhibitory concentration (IC50) is > 100 µM.
Consider `CCC(CC)c1nnc(NC(=O)c2cccc(S(=O)(=O)N3CCc4ccccc43)c2)s1`, for which the IC50 was > 100 µM (inactive). Also, the half-inhibitory concentration (IC50) under setting [1] was > 100 µM.
On to `COc1ccc(C2(C)NC(=O)N(CC(=O)Nc3ccc4c(c3)OCO4)C2=O)cc1OC` (centres undefined), for which the IC50 is > 100 µM (inactive). Under setting [1], the IC50 was > 100 µM.
Regarding `CCOC(=O)c1c(C)[nH]c(C(=O)Nc2ccc3c(c2)OCO3)c1C`, the IC50 was > 100 µM (inactive). The half-inhibitory concentration (IC50) under setting [1] was > 100 µM.
As for `O=C(c1ccccc1)N1CCN(C(=O)c2ccncc2)CC1`, the IC50 is > 100 µM (inactive). Besides, the 50% inhibitory concentration (IC50) under setting [1] was > 100 µM.
With `CC1(C)Cc2c(c(=S)nc(-c3ccccc3)n2CCOCCO)CO1`, the IC50 was > 100 µM (inactive). For the same compound, under setting [1], the concentration for half-maximal inhibition (IC50) was > 100 µM.
On to `CCN1CCN(c2cc(-c3ccccc3)nc3cc(-c4cccc(F)c4)nn23)CC1`, for which the IC50 entry was “inactive”. The compound also came in with a concentration for half-maximal inhibition (IC50) under setting [2] of 6.87 µM. The compound also had an IC50 under setting [1] of 8.98 µM.
`COC(=O)c1nn(-c2ccc3c(c2)CCN3C(C)=O)cc1O`: the IC50 entry was “inactive”. For the same compound, the IC50 under setting [2] is 3.61 µM. Moreover, the IC50 under setting [1] was > 100 µM.
Consider `CCCn1c(SCC(=O)Nc2nc3c(s2)CCCC3)nc2c1c(=O)n(C)c(=O)n2C`, for which the IC50 is > 100 µM (inactive). Moreover, under setting [1], the 50% inhibitory concentration (IC50) was > 100 µM.
For `COc1ccc(C2NC(=O)NC(C)=C2C(C)=O)cc1` (centres undefined), the IC50 is > 100 µM (inactive). For the same compound, under setting [1], the half-maximal inhibitory concentration (IC50) was > 100 µM.
Consider `COC(=O)c1cn(CCOc2ccccc2)c2ccccc12`, for which the IC50 was > 100 µM (inactive). Further, the half-inhibitory concentration (IC50) under setting [1] is > 100 µM.
Take `COc1cccc(C2NC(CC(C)C)(C(=O)O)C3C(=O)N(Cc4ccccc4)C(=O)C23)c1O` (centres undefined): the IC50 is > 100 µM (inactive). The IC50 under setting [1] was > 100 µM.
For `COc1ccc2[nH]c(=O)c(CN(C(=O)c3cccnc3)c3ccc(C)cc3)cc2c1` the same measures were > 100 µM (inactive) and > 100 µM.
`COc1ccc(Nc2oc(COc3cccc(C)c3)nc2C#N)cc1`: the IC50 is > 100 µM (inactive). In addition, under setting [1], the IC50 is > 100 µM.
As to `COc1ccc(Cl)cc1C(=O)N1CCN(c2ccccn2)CC1`, the IC50 is > 100 µM (inactive). Also, the IC50 under setting [1] is > 100 µM.
For `CCOC(=O)Cc1csc(NC(NC(=O)CC)(C(F)(F)F)C(F)(F)F)n1` the same measures were > 100 µM (inactive) and > 100 µM.
In the case of `COc1ccccc1CC(=O)N1CCN(c2cccc(C(F)(F)F)c2)CC1`, the IC50 was > 100 µM (inactive). Moreover, the IC50 under setting [1] was > 100 µM.
On to `CCOC(=O)Cn1c(=O)c2c(nc3n2CCN3Cc2ccccc2)n(C)c1=O`, for which the IC50 was > 100 µM (inactive). Also, the IC50 under setting [1] is > 100 µM.
`CCOC(=O)N1CCN(C(=O)CN(Cc2ccc(Cl)cc2)S(=O)(=O)c2ccc(C)cc2)CC1`: the IC50 was > 100 µM (inactive). The half-inhibitory concentration (IC50) under setting [1] was > 100 µM.
With `Nn1cnnc1SC1CCCCC1NS(=O)(=O)c1ccccc1` (centres undefined), the IC50 is > 100 µM (inactive). The half-maximal inhibitory concentration (IC50) under setting [1] is > 100 µM.
Turning to `Cc1c(O)c(CN2CCCC2)cc2c1oc(=O)c1ccccc12`, the IC50 is > 100 µM (inactive). Also, the IC50 under setting [2] is > 100 µM. Further, under setting [1], the 50% inhibitory concentration (IC50) was > 100 µM.
Take `Cc1ccc(-c2nnc3ccc(SCC(=O)NCc4ccco4)nn23)cc1`: the IC50 was > 100 µM (inactive). For the same compound, the IC50 under setting [1] was > 100 µM.
In the case of `COc1ccc(C2=CSC3=NCCN23)cc1F`, the IC50 was > 100 µM (inactive). In addition, the IC50 under setting [1] was > 100 µM.
